Results on 9 molecules are retold here after article PMC3187794, “Insights into the Complex Formed by Matrix Metalloproteinase-2 and Alloxan Inhibitors: Molecular Dynamics Simulations and Free Energy Calculations” (PLoS ONE, 2011).

pIC50: −log10 of the molar value. A value given as a limit tells only on which side of the number the result lay.

Common to all, as to type: biochemical
One assay addresses T1, MMP-2 (Homo sapiens, UniProt P08253).
T1 sequence (P08253 110-660): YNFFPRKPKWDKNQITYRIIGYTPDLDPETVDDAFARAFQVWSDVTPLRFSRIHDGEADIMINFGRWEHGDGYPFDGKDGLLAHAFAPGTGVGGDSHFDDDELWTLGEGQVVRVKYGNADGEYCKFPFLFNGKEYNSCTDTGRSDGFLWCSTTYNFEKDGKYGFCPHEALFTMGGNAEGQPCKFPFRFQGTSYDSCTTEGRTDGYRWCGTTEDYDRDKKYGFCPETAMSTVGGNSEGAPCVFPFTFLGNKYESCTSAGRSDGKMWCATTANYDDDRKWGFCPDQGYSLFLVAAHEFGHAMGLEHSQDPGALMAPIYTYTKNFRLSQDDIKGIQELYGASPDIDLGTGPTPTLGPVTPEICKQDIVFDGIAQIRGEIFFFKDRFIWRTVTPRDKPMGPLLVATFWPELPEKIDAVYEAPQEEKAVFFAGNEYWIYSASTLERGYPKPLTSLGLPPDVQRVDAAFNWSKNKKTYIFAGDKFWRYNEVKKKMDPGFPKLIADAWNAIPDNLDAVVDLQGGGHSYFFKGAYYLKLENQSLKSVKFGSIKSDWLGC
Put plainly: MMP inhibition fluorimetric assay (pro-fluorescing peptide substrate), MMP-2. Here is the method: (§1) Inhibitory activities were determined by a fluorimetric assay, where a pro-fluorescing peptide was used as substrate of MMP, and the fluorogenic activity of its cleavage product was measured after co-incubation with test compounds.

The next assay addresses MMP-8 (Homo sapiens, UniProt P22894). The assay is described as follows: MMP inhibition fluorimetric assay (pro-fluorescing peptide substrate), MMP-8. The protocol: as §1
The next assay has as its target MMP-9 (Homo sapiens, UniProt P14780). Put plainly: MMP inhibition fluorimetric assay (pro-fluorescing peptide substrate), MMP-9. The protocol: as §1

Chain of MMP-9 (P14780 94-707, species assumed): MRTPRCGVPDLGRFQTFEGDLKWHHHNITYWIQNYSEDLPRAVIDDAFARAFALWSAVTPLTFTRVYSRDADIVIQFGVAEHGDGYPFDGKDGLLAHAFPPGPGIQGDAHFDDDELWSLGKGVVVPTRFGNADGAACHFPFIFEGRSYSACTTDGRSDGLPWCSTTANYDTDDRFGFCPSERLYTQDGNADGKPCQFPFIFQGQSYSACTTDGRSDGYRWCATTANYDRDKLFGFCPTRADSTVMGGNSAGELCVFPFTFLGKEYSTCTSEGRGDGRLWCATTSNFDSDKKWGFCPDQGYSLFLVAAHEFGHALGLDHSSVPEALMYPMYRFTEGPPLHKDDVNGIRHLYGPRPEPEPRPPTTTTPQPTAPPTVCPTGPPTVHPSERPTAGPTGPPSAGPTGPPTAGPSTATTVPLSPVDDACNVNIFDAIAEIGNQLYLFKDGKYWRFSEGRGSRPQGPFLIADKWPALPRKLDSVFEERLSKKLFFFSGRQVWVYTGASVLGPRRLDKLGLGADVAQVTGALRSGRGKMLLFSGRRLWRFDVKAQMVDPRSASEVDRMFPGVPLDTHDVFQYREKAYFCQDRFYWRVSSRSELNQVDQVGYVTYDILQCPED
Chain of MMP-8 (P22894 101-467, species assumed): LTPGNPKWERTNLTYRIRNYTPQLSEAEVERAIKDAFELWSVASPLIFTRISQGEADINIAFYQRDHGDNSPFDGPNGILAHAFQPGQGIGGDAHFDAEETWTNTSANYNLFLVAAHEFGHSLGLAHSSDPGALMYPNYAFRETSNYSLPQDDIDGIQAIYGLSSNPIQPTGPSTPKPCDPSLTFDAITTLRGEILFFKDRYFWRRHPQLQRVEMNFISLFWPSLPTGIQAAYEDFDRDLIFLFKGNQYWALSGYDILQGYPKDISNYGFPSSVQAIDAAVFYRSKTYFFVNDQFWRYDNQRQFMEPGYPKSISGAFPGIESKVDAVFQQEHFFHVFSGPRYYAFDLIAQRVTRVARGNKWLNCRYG

In the case of `NC(=O)c1ccc(-c2ccc(C(=O)CC3(O)C(=O)NC(=O)NC3=O)cc2)cc1` [BAM], the pIC50 was 7.06 at MMP-2, 6.23 at MMP-8 and 5.74 against MMP-9. Also, at MMP-2 (MMP-2 vs MMP-9), the “selectivity towards MMP-2, as compared to MMP-9” value is recorded as over 20.

Regarding `O=C1NC(=O)C(O)(CC(=O)c2ccc(-c3ccccc3)cc2)C(=O)N1` [BAR], the figures for the pIC50 on MMP-2, against MMP-8 and at MMP-9 were 6.74, 6.58 and 6.29, respectively.

As for `O=C1NC(=O)C(O)(CC(=O)c2ccc(-c3cccc(Cl)c3)cc2)C(=O)N1` [BCL], the pIC50 at MMP-2 was 4.22; against MMP-8 it was 5.35; on MMP-9 it was 4.70.

Take `O=c1[nH]c(=O)c2cc(-c3ccccc3)nnc2[nH]1` [compound 1]: the figures for the inhibition at 100 µM against MMP-2, against MMP-8 and at MMP-9 were 0%, 0% and 5%, respectively.

Consider `O=c1[nH]c(=O)c2cc(-c3ccc(C(F)(F)F)cc3)nnc2[nH]1` [compound 2], for which the inhibition at 100 µM is 12% on MMP-2, 14% against MMP-8 and 27% against MMP-9.

On MMP-2, `O=C1NC(=O)C(O)(CC(=O)c2ccccc2)C(=O)N1` [compound 3] yielded an inhibition at 100 µM of 0%. The pIC50 was 4.37 against MMP-8 and 4.35 against MMP-9.

On to `O=C1NC(=O)C(O)(CC(=O)c2ccc(C(F)(F)F)cc2)C(=O)N1` [compound 4], for which the values for the pIC50 at MMP-2 and against MMP-8 were 4.41 and 5.09, respectively. Testing at 100 µM against MMP-9 gave an inhibition of 51%.

On to `COc1ccc(C(=O)CC2(O)C(=O)NC(=O)NC2=O)cc1` [compound 5], for which the pIC50 is 4.67 against MMP-2, 5.17 at MMP-8 and 4.89 against MMP-9.

Consider `O=C1NC(=O)C(O)(CC(=O)c2ccc([N+](=O)[O-])cc2)C(=O)N1` [compound 6], for which the inhibition at 100 µM was 0% against MMP-2 and 8% against MMP-9. For the same molecule, the pIC50 against MMP-8 was 3.20.

Broadly, the pIC50 is the negative decadic logarithm of the IC50, by convention in mol/L. By inhibition is commonly meant the change of the read-out against control, counted positive when it falls. Read a low inhibition as a weak effect.
